Legend:
[1] = Fluorescence lifetime imaging (FLIM) of amyloid fibril formation in vitro; assay type: physicochemical; details: for fluorescence lifetime of larger aggregates deposited on the coverslip: FLIM, 'often in the range of'; for mean fluorescence lifetime, monomeric peptide: beginning of time course / before trypsin
Method: We first examined whether a Hilyte Fluor 488 (HF488) dye attached to the N termini of Aβ(1–40) and Aβ(1–42) could act as a reporter of amyloid formation by monitoring how the fluorescence intensity of the dye changes as fibril formation occurs in vitro for each of the two Aβ isoforms. The appearance of fibrillar species was identified by means of dot blot experiments using the conformation-specific antibody LOC ([Kayed et al., 2007]), and the HF488 fluorescence intensity was measured in parallel (Figure 1A; Figure S1 available online). […] This small difference, however, could result from the fact that LOC recognizes fibrillar oligomers as well as amyloid fibrils, whereas the fluorescence quenching is likely to be associated predominately with amyloid fibrils. We also confirmed the formation of β sheet structure by measurement of circular dichroism spectra at the beginning and end of the time course of the experiment (Figure 1B). Next, we used FLIM to analyze these samples collected at the beginning and end of the time course of the experiment. The fluorescence lifetimes in each pixel of these images were obtained by fitting monoexponential decay functions to the observed time-resolved fluorescence decays, and the data and images are shown in Figures 1C and 1D.
All in vitro experiments were performed at a peptide concentration of 5 μM in 50 mM sodium phosphate buffer at pH 7.4. Aggregation kinetics were monitored by steady-state fluorescence in a FLUOstar Optima microplate reader (BMG Labtech) and sealed black Costar half-area, 96-well plates (Corning Life Sciences). Data were recorded at 5-min intervals using a 480-nm bandpass filter for excitation and a 520-nm bandpass filter for emission. Orbital shaking (300 rpm, 10 s) was carried out prior to each recording to ensure that each sample was homogenous. Sample aliquots for dot blot analysis were taken at the indicated time points and immediately flash-frozen in liquid nitrogen. These aliquots were thawed by dilution into phosphate buffer to a total volume of 25 μl and immediately blotted onto a nitrocellulose membrane using a Bio-Rad dot blot apparatus. The membrane was blocked with 5% (w/v) dry milk and 0.1% Triton X-100 in PBS and stained with LOC as the primary antibody and an Alexa Fluor 647-labeled anti-rabbit antibody as the secondary antibody (Life Technologies). The blots were imaged on a Typhoon 9400 scanner (GE Healthcare) using the 633-nm laser line for excitation. Densitometric analysis of the blots was carried out using ImageJ. ([Schneider et al., 2012]). Aβ samples for in vitro fluorescence lifetime imaging were placed in a glass-bottomed tissue culture dish (MatTek) and sealed with a coverslip and nail varnish to avoid evaporation.
All FLIM experiments were carried out using HF488-labeled Aβ peptides, and images were recorded by time-correlated single photon counting (TCSPC) using a confocal microscopy platform built on an Olympus Fluoview FV300 confocal scan unit. A pulsed supercontinuum source (SC 450, Fianium) was used for excitation, emitting a train of sub-10-picosecond pulses at 40 MHz repetition rate. The output beam was collimated and passed through a hot mirror assembly to remove infrared components at wavelengths greater than 700 nm. The visible portion of the spectrum was passed through an acousto-optic tunable filter (AOTFnC-VIS, AA Opto-Electronic) whose radio frequency modulator was driven by software developed using LabVIEW (National Instruments). The excitation wavelength was set to 480 nm. The excitation beam was reflected onto the sample with a 20/80 broad bandwidth coated beam splitter so that 20% of the excitation light passed on to the sample and 80% of the fluorescence signal was reflected toward the confocal pinhole. The fluorescence light was passed through a 515-nm Semrock long-pass filter (Laser 2000) and passed onto a fast photomultiplier tube (PMC-100, Becker & Hickl). Lifetimes were recorded using TCSPC circuitry (SPC-830, Becker & Hickl). […]

[2] = test system: SH-SY5Y human neuroblastoma cells; experiment: Confocal microscopy of uptake and intracellular localization; assay type: cell-based; details: for intracellular HF488 fluorescence (uptake) after 30 min: 500 nM monomeric peptide in medium, colocalized with endocytosis marker FM 4–64; for intracellular HF488 fluorescence (uptake) after 30 min / intracellular localization after 24 hr: confocal fluorescence; for intracellular localization after 24 hr: 500 nM peptide 24 hr, then 1 hr with 100 nM LysoTracker red; for uptake at 4°C: 1 hr at 4°C (inhibits endocytosis) compared with 37°C, cells washed before confocal imaging
Method: Aβ peptides have been reported to be internalized into a variety of cell types, including neurons ([Burdick et al., 1997; Friedrich et al., 2010; Hu et al., 2009; Kaminski Schierle et al., 2011b; McGuire et al., 2012]). To characterize the uptake and intracellular localization of the peptides under the conditions used in our study, we added aliquots of monomeric ^HF488Aβ(1–40) or ^HF488Aβ(1–42) to cultures of SH-SY5Y human neuroblastoma cells to give a total peptide concentration of 500 nM in the cellular medium. […] The neuronal cells were also incubated for 1 hr at 37°C and at 4°C to compare uptake under conditions that, respectively, permit or inhibit endocytosis.
Human neuroblastoma cells (SH-SY5Y) were grown in 1:1 minimal essential medium (MEM) and nutrient mixture F-12 Ham (Sigma-Aldrich) with sodium bicarbonate, including 15% heat-inactivated fetal bovine serum, 1% MEM non-essential amino acids, 2 mM […], 1% penicillin-streptomycin (10,000 U/ml K1), and 0.1% fungizone (amphotericin B, […] K1) (Life Technologies). Cells were plated 1 day prior to experiments in glass-bottomed culture dishes (MatTek) at a density of 50,000 cells/14-mm dish. All samples were washed once in CO2-independent, serum- and phenol red-free medium (prepared as above but with exclusion of serum and addition of 30 mM HEPES and B12 supplement [Gibco]). All experiments with cells were performed in at least duplicates and repeated at least three times. The Aβ concentration was 500 nM in all experiments.
All uptake and colocalization experiments were carried out with the HF488-labeled Aβ peptides using a Leica SP5 confocal microscope (Leica Microsystems). For colocalization with FM 4–64 (Life Technologies), 5 μg/ml of the dye was added together with the peptide, and images were recorded after 1 hr of incubation. Both dyes were excited by the 488-nm laser line. HF488 emission was collected from 520–580 nm and FM 4–64 emission between 700–800 nm. For colocalization with LysoTracker red (Life Technologies), cells were incubated with HF488-labeled peptide for 24 hr, washed once with serum-free medium, and thereafter incubated for 1 hr with 100 nM LysoTracker red before images were recorded. LysoTracker red was excited using the […] laser line, and emission was collected between 700–800 nm. Sequential acquisition was used in all experiment to avoid bleed-through and cross-excitation. Cellular uptake at 4°C was assessed by keeping the cells in a cold room during incubation. The cells were washed prior to imaging to avoid uptake while observing the cells on the microscope.

[3] = 5 μM peptide in 50 mM sodium phosphate buffer pH 7.4
[4] = 5 μM peptide in 50 mM sodium phosphate buffer pH 7.4, FLIM (TCSPC), monoexponential fit, mean ± SD

Substance	fluorescence lifetime of larger aggregates deposited on the coverslip [1, 3]	mean fluorescence lifetime, monomeric peptide [1, 4]	mean fluorescence lifetime, solutions containing fibrillar peptide ([1]; aggregation read-out, 5 μM peptide in 50 mM sodium phosphate buffer pH 7.4, end of time course, FLIM (TCSPC), monoexponential fit, mean ± SD)	intracellular HF488 fluorescence (uptake) after 30 min [2]	intracellular localization after 24 hr [2]	uptake at 4°C ([2]; 500 nM peptide)	lag phase of fibril formation in vitro (decrease in fluorescence lifetime) ([1]; 5 μM peptide in 50 mM sodium phosphate buffer pH 7.4, droplet on FLIM microscope stage, sigmoidal decrease (Figure S2A))	cellular uptake after 10 minutes ([2]; 500 nM peptide, 10 minutes, confocal fluorescence with Z-scanning (Figure S3))
^HF488Aβ(1–42): Synthetic 42-residue amyloid β peptide labeled at the N terminus with Hilyte Fluor 488, purchased from Anaspec	2.5–3.0 ns	3.7 ± 0.05 ns	3.3 ± 0.1 ns	observed readily	colocalize with LysoTracker red	did not internalize any detectible quantities		
^HF488Aβ(1–40): Synthetic 40-residue amyloid β peptide labeled at the N terminus with Hilyte Fluor 488, purchased from Anaspec	2.5–3.0 ns	3.7 ± 0.1 ns		observed readily	colocalize with LysoTracker red	did not internalize any detectible quantities	approximately 2.5 hr	vesicular uptake

— PMC4067742, “Direct Observations of Amyloid β Self-Assembly in Live Cells Provide Insights into Differences in the Kinetics of Aβ(1–40) and Aβ(1–42) Aggregation” (Chemistry & Biology, 2014)
